# Paper PMC8580050, “Improvement of the antimicrobial potency, pharmacokinetic and pharmacodynamic properties of albicidin by incorporation of nitrogen atoms” (Chemical Science, 2021)
# Where two headings read alike, the source gives them in different places.
# What was measured:
# [1] = system: S. aureus (ciprofloxacin susceptible clinical isolate); experiment: MIC, extended panel; format: cell-based; conditions: Staphylococcus aureus
# Method: (§1) 1.1.1 In vitro experiments
# (§2) Determination of Minimal inhibitory concentrations (MIC)
# (§3) Approved Standard M07-A9.1
# (§4) CFU mL-1. […] Albicidin and […]
# (§5) and serially diluted in DMSO (100%). […]
# (§6) in 0.1 N HCL, respectively.
# (§7) One row of each well plate served as a […]
# (§8) sterility control (only MHB II-media). […]
# (§9) adding 5 µL DMSO to several wells. […]
# (§10) for growth inhibition by naked eye.
# (§11) Microorganisms and Cell Cultures (DSMZ): […]
# (§12) Dr. Werner (Robert-Koch-Institut, Wernigerode, Germany): […]
# (§13) for the following 11 pathogenic isolates: […]
# [2] = system: E. faecium (ciprofloxacin susceptible clinical isolate); experiment: microbe, parasite or virus in culture; conditions: Enterococcus faecium
# [3] = system: A. baumannii (ciprofloxacin resistant isolate); experiment: microbe, parasite or virus in culture; format: cell-based, Acinetobacter baumannii
# Method: as §1, §2, §3, §4, §5, §6, §7, §8, §9, §10, §11, §12, §13
# [4] = target: T1, E. coli DNA gyrase (Escherichia coli, UniProt P0AES4+P0AES6); experiment: E. coli gyrase supercoiling inhibition assay; format: biochemical; design: key: ↑: for stronger inhibition; ≈: for equal inhibition; ↓: for diminished inhibition compared to albicidin 1; conditions: constant concentration of 45 nM, compared to albicidin 1
# T1 construct: purchased inspiralis Limited, Norwich, UK
# Method: Escherichia coli Gyrase Supercoiling Inhibition Assay
# loaded on an agarose gel.
# 2-15. […] Addition of DNA
# All derivatives were tested at a concentration of […]
# [5] = system: M. phlei DSM 750; experiment: MIC determination (broth microdilution); format: cell-based, Mycobacterium phlei; conditions: Mycolicibacterium phlei, DSM750
# Method: as §1, §2, §3, §4, §5, §6, §7, §8, §9, §10
# [6] = system: S. Typhimurium TA100; experiment: MIC determination (broth microdilution); format: cell-based, Salmonella typhimurium; conditions: Salmonella enterica; S. Typhimurium TA100; read-out: MIC
# Method: as §1, §2, §3, §4, §5, §6, §7, §8, §9, §10, §11
# [7] = in vitro; conditions: plasma, pH 7.4
# Method: Determination of plasma stability
# Human and murine plasma aliquots (Sigma-Aldrich, Taufkirchen, Germany) were thawed and subsequently centrifuged at 3000 rpm for 10 min at 4°C. Resulting supernatant was diluted in the same volume of phosphate buffer (pH 7.4) to obtain a plasma concentration of 50% (v/v). Stock solutions of […]
# concentration of 20 µM (5% DMSO). Following incubation at 37°C ice-cold methanol containing 30% […]
# were centrifuged at 4000 rpm for 20 min at 4°C and 100 µL of supernatant were directly transferred to a fresh MS-vial. Samples were analyzed by LC/MS-MS experiments. Quantification of remaining compounds was performed by an external calibration curve of standard solutions in the range of […]
# [8] = system: E. coli DSM 1116 + 50% Human Serum; experiment: MIC determination in presence of 50% human serum; format: cell-based; conditions: Escherichia coli, DSM1116
# Source text: This investigation was completed by assessment of the antibacterial activity in presence of human plasma (50%) (Table 1), since high plasma protein binding can severely impair antibacterial activity and thus efficacy.
# as §1, §2, §3, §4, §5, §6, §7, §8, §9, §10, §11
# [9] = system: M. luteus DSM1790; experiment: MIC determination (broth microdilution); format: cell-based, Micrococcus luteus; conditions: Micrococcus luteus, DSM1790
# Method: as §1, §2, §3, §4, §5, §6, §7, §8, §9, §10, §11
# [10] = system: B. subtilis DSM 10; experiment: MIC determination (broth microdilution); format: cell-based; conditions: Bacillus subtilis, DSM10
# Method: as §1, §2, §3, §4, §5, §6, §7, §8, §9, §10, §11
# [11] = system: E. coli BW25113; experiment: MIC determination (broth microdilution); format: cell-based; conditions: Escherichia coli
# Method: as §1, §2, §3, §4, §5, §6, §7, §8, §9, §10, §11
# [12] = system: E. coli knockout mutants from the KEIO collection (TolC, tsx); experiment: MIC on E. coli knockout mutants (KEIO collection); format: cell-based; conditions: for MIC: Escherichia coli
# [13] = system: S. aureus (ciprofloxacin resistant clinical isolate); experiment: microbe, parasite or virus in culture; format: cell-based, Staphylococcus aureus
# Method: as §1, §2, §3, §4, §5, §6, §7, §8, §9, §10, §11, §12, §13
# [14] = system: Salmonella Kentucky (ciprofloxacin susceptible clinical isolate); experiment: MIC, extended panel; format: cell-based; conditions: Salmonella enterica
# Method: as §1, §2, §3, §4, §5, §6, §7, §8, §9, §10, §11, §12
# [15] = system: E. coli (ciprofloxacin susceptible clinical isolate); experiment: MIC, extended panel; format: cell-based; conditions: Escherichia coli
# Method: as §1, §2, §3, §4, §5, §6, §7, §8, §9, §10, §11, §12
# [16] = system: K. pneumoniae (ciprofloxacin resistant clinical isolate); experiment: microbe, parasite or virus in culture; format: cell-based; conditions: Klebsiella pneumoniae
# Method: as §1, §2, §3, §4, §5, §6, §7, §8, §9, §10, §11, §12
# [17] = system: Salmonella Kentucky (ciprofloxacin resistant clinical isolate); experiment: microbe, parasite or virus in culture; format: cell-based
# Method: as §1, §2, §3, §4, §5, §6, §7, §8, §9, §10, §11, §12
# [18] = system: P. aeruginosa (ciprofloxacin susceptible clinical isolate); experiment: MIC, extended panel; format: cell-based, Pseudomonas aeruginosa
# Method: as §1, §2, §3, §4, §5, §6, §7, §8, §9, §10, §11, §12, §13
# [19] = system: K. pneumoniae (ciprofloxacin susceptible clinical isolate); experiment: MIC, extended panel; format: cell-based, Klebsiella pneumoniae
# Method: as §1, §2, §3, §4, §5, §6, §7, §8, §9, §10, §11, §12
# [20] = Pharmacokinetic study, i.v.
# [21] = system: P. aeruginosa (ciprofloxacin resistant clinical isolate); experiment: microbe, parasite or virus in culture; format: cell-based; conditions: Pseudomonas aeruginosa
# Method: as §1, §2, §3, §4, §5, §6, §7, §8, §9, §10, §11, §12, §13
# [22] = system: E. faecium (ciprofloxacin resistant clinical isolate); experiment: microbe, parasite or virus in culture; format: cell-based; conditions: Enterococcus faecium
# Method: as §1, §2, §3, §4, §5, §6, §7, §8, §9, §10, §11, §12, §13
# [23] = system: E. coli DSM 1116; experiment: MIC determination (broth microdilution); format: cell-based, Escherichia coli
# Method: as §1, §2, §3, §4, §5, §6, §7, §8, §9, §10, §11
# [24] = system: fluoroquinolone-resistant (FQR) E. coli isolate; experiment: Murine septicaemia infection model; format: in vivo, CD-1 mice
# Method: From a panel of clinical ESKAPE isolates one fluoroquinolone (FQR)-resistant E. coli strain was selected for the preparation of the infection model (Table S3 ^†). […] Bacterial payload (CFU) was measured from spleens and kidneys and compared to untreated control animals.
# Pharmacokinetic calculations
# 1.1.3 Murine septicemia infection model
# For in vivo infections study female CD-1 mice (RjOrl:SWISS, 6 weeks old) were purchased from Janvier Labs (Le Genest Saint Isle, France). The animals were allowed to acclimatize for at least seven days before the start of experiments. Group-Housing was realized in a pathogen-free, temperature- […]
# and water ad libitum throughout the study. All experimental procedures were approved by and conducted in accordance to the institutional guidelines. […]
# septicemia infection model. Following overnight incubation in Brain Heart infusion at 37°C, the strain was spin down at 2.500 rpm for 10 min. Immediately before use, bacteria pellet was resuspended in […]
# For infection procedure, mice were briefly anesthetized with continuous inhalation of isoflurane.
# 100 µl of bacterial suspension were intravenously administered. At least nine animals were used for each of the following therapeutic groups:
# - Untreated but infected animals: control group (PBS)
# - Drug candidate, dose 1 group (6 mg kg-1);
# - Drug candidate, dose 2 group (17 mg kg-1). […]
# respectively. Animals were monitored for clinical signs throughout the whole study using a 4-point body condition score analyzing weight loss, respiratory distress, hampered mobility and hunched posture. Animals were euthanized after 24 hours of infection. Spleen and kidneys from each animal were removed, weighed, and homogenized in 2 mL of PBS and used for quantitative cultures on agar
# [25] = Tolerability assessment; format: in vivo, CD-1 mice; conditions: intravenous injection, 50 mg kg^−1, mice
# Method: Application volume of 5 ml kg-1 was used. Samples of K-EDTA blood were collected from each mouse […]
# An individual blood cell count was performed for each sample. […]
# performed with help of the grimace scale to monitor any changes in facial expression. […]
# were sacrificed, and a macroscopic necropsy was performed to search for damaged organs. Data of blood cell count is given in Table S7 and reference values for measured blood cell parameters are given
# [26] = system: E. coli (ciprofloxacin resistant clinical isolate); experiment: microbe, parasite or virus in culture; format: cell-based, Escherichia coli
# Method: as §1, §2, §3, §4, §5, §6, §7, §8, §9, §10, §11, §12
# [27] = 50 mg kg-1 i.v., 2-compartment analysis
# T1 sequence (P0AES4 whole entry, one chain of several): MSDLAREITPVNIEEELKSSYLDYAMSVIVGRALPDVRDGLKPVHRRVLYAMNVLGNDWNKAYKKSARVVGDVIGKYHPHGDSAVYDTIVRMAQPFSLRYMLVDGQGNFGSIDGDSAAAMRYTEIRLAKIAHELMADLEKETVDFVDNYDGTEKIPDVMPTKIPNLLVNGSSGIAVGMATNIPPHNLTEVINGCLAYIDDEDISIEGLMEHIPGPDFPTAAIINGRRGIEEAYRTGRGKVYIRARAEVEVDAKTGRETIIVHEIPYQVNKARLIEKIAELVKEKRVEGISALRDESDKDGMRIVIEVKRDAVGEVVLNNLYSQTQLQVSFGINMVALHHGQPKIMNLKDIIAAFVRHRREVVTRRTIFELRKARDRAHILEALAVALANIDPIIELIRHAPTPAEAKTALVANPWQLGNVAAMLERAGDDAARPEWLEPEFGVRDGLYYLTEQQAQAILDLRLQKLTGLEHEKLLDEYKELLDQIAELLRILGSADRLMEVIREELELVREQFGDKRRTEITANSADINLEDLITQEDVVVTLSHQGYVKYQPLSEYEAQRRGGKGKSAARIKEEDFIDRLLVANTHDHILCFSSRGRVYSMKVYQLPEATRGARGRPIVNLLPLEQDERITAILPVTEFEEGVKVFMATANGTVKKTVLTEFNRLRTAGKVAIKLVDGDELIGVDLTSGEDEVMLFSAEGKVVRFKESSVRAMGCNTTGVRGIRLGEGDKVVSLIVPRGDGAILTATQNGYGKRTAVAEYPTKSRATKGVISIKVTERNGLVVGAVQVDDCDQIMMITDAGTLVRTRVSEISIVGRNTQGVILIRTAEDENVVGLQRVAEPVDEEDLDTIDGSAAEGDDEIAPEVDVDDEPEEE
compound,measurement,setting,value
COc1c(NC(=O)c2ccc(NC(=O)c3ccc(NC(=O)[C@H](Cc4c[nH]nn4)NC(=O)c4ccc(NC(=O)/C(C)=C/c5ccc(O)cc5)cc4)cn3)c(OC)c2O)ccc(C(=O)O)c1O [Compound 7],MIC,[1],0.016 µg/mL
same,MIC,[2],0.25 µg/mL
same,MIC,[3]; Acinetobacter baumannii,0.016 µg/mL
same,"activity, times higher compared to 2",[3]; CIP-resistant A. baumannii,125 times
same,E. coli gyrase inhibition,[4],↑
same,MIC,[5],0.25 µg/mL
same,MIC,[6],≤ 0.016 µg/mL
same,half-life at 20 µM,[7]; human,> 4 h
same,half-life at 20 µM,[7]; mouse,1.58 h
same,MIC,[8],0.5 µg/mL
same,MIC,[9],0.031 µg/mL
same,MIC,[10],0.063 µg/mL
same,MIC,[11],≤ 0.016 µg/mL
same,MIC,"[12]; read-out: antimicrobial activity (MIC), TolC (efflux transporter) knockout mutation",≤ 0.016 µg/mL
same,MIC,"[12]; read-out: antimicrobial activity (MIC), before TolC knockout (parent strain)",0.063 µg/mL
same,"increase of efficacy, factor",[12]; TolC knockout mutation,4
same,decrease in activity,[12]; knockout mutation of the tsx gene,10 fold
same,"activity, times higher compared to 2",[13]; CIP-resistant S. aureus,8 times
same,MIC,[13]; Staphylococcus aureus,0.063 µg/mL
same,MIC,[14],0.016 µg/mL
same,MIC,[15],0.016 µg/mL
same,MIC,[16],64 µg/mL
same,"activity, times higher compared to 2",[17]; CIP-resistant Salmonella Kentucky,8 times
same,MIC,[17]; Salmonella enterica,0.016 µg/mL
same,"activity, times higher than 2",[18]; CIP sensitive P. aeruginosa,4 times
same,MIC,[18]; Pseudomonas aeruginosa,1 µg/mL
same,"activity, times higher than 2",[19]; CIP sensitive K. pneumonia,8 times
same,MIC,[19]; Klebsiella pneumoniae,8 µg/mL
same,"T1/2 kel, mean",[20]; [27],1.4 h
same,"T1/2 λz, mean",[20]; [27],8.3 h
same,plasma level as multiple of MIC for E. coli,"[20]; 50 mg kg^−1 i.v., after 24 h",higher than 5 times MIC
same,MIC,[21],2 µg/mL
same,MIC,[22],32 µg/mL
same,MIC for E. coli,"[23]; E. coli, strain not given",0.016 µg/mL
same,MIC,"[23]; Escherichia coli, DSM1116",≤ 0.016 µg/mL
same,CFU reduction in kidney,[24]; 17 mg kg^−1 applied twice,> 2 log units
same,CFU reduction in spleen,[24]; 17 mg kg^−1 applied twice,more than 3 log units
same,survival,"[24]; 17 mg kg^−1 applied twice, lethal dose of FQR clinical isolate E. coli",all mice survived
same,survival after 24 h,"[24]; 6 and 17 mg kg^−1 i.v. twice, lethal dose of FQR resistant E. coli",survived
same,reduction of bacterial counts in kidneys,"[24]; both tested doses (6 and 17 mg kg^−1 i.v. twice), versus untreated control",> 3 log 10 CFU g^−1
same,adverse effects or histopathological observations (tolerability study),[25],did not show any adverse effects or histopathological observations
same,"activity, times higher compared to 2",[26]; CIP-resistant E. coli,4 times
same,MIC,[26]; Escherichia coli,0.016 µg/mL
